Experimental data taken from patent US20210121527A1, “METHODS OF TREATING MINIMAL RESIDUAL CANCER” (ICAHN SCHOOL OF MEDICINE AT MOUNT SINAI, priority 2018, published 2021).

Tests used:
PERK = molecular target: T1, PERK (Homo sapiens, UniProt Q9NZJ5); assay: Cell-based TR-FRET assay of tunicamycin-induced eIF2a phosphorylation in 293 cells
T1 construct: endogenous in cells; host or cells: GripTite 293 cells expressing GFP-eIF2a
T1 sequence (Q9NZJ5 30-1116): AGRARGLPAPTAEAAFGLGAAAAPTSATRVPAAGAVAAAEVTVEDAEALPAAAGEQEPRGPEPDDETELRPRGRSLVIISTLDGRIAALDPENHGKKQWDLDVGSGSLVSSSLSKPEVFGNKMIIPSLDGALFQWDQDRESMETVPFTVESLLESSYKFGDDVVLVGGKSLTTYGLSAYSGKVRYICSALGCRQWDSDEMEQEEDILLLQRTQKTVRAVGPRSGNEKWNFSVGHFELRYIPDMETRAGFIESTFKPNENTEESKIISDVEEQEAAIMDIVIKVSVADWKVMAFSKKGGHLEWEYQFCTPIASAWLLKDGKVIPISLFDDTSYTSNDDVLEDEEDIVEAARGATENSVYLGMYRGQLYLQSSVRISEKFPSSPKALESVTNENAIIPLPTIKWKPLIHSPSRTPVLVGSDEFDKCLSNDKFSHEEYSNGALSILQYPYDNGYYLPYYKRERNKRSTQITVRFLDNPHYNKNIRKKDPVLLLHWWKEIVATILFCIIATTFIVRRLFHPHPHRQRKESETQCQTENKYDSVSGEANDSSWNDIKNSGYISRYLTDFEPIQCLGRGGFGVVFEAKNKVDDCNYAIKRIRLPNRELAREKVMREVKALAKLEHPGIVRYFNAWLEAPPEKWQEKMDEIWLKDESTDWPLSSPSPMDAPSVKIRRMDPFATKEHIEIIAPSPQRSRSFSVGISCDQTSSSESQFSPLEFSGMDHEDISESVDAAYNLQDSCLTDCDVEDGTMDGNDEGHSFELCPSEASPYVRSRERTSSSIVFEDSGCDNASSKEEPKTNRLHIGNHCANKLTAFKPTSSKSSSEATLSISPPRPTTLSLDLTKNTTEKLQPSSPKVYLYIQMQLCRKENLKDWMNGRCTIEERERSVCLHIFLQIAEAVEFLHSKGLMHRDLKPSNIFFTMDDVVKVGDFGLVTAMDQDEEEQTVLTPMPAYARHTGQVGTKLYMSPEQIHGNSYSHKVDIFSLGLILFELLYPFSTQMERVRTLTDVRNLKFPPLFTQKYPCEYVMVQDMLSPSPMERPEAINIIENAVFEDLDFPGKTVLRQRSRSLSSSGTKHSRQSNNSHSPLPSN
Description: Cell-based TR-FRET assay: Briefly, GripTite™ 293 cells (Invitrogen) expressing GFP-eIF2a were seeded at 10,000 cells per well in 384-well plates and allowed to attach overnight. Cells were pre-treated with test compounds for 1 hour. Tunicamycin (1 μM) was added to induce PERK activity and the plates were incubated at 37° C. for 2 hours. The culture media was removed and the cells were lysed in buffer consisting of 20 mM Tris-HCl, pH 7.5, 150 mM NaCl, 5 mM EDTA, 1% NP-40, 5 mM NaF, Protease inhibitors (Sigma Cat # P8340), Phosphatase inhibitors (Sigma Cat # P2850), and 2 nM Terbium-labelled anti-phospho-eIF2 antibody (Invitrogen Cat # PM43121). Cell lysates were incubated for 2 hours in the dark at room temperature and fluorescence was monitored in an EnVison® Multilabel reader (PerkinElmer, Waltham, Mass.).

456 kinases = assay: DiscoveRx scanMAX kinase profiling, number of kinases inhibited; assay type: binding; conditions: for # kinases inhibited >50%: 456 kinases tested; for number of kinases with >60% inhibition: 20 μM as stated in text, 456 kinases
Description: Biochemical assays: Recombinant human EIF2AK3 (PERK) catalytic domain (amino acids 536-1116; Cat # PV5107), GFP-eIF2a (Cat # PV4809) substrate, and Terbium-labelled phospho-eIF2a antibody (Cat # PR8956B) were purchased from Invitrogen (Carlsbad, Calif.). HIS-SUMO-GCN2 catalytic domain (amino acids 584-1019) was expressed and purified from E. coli. TR-FRET kinase assays were performed in the absence or presence of inhibitors in a reaction buffer consisting of 50 mM HEPES, pH 7.5, 10 mMMgCl2, 1.0 mM EGTA, and 0.01% Brij-35, and 100-200 nM GFP-eIF2a substrate. […] Following the addition of test compound, the reaction was initiated by addition of enzyme and incubated at room temperature for 45 minutes. The reaction was stopped by addition of EDTA to a final concentration of 10 mM and Terbium-labelled phospho-eIF2α antibody was added at a final concentration of 2 nM and incubated for 90 minutes. The resulting fluorescence was monitored in an EnVison® Multilabel reader (PerkinElmer, Waltham, Mass.). TR-FRET ratios and the resulting IC50 values were determined from the fitted inhibition curves. Biochemical specificity profiling was performed at Cerep (Redmond, Wash.) and DiscoverX (San Diego, Calif.).

[1] = molecular target: T2, PERK phosphorylation in MCF10A-HER2 cells (Homo sapiens, UniProt Q9NZJ5); assay: Immunoblot of PERK phosphorylation in stressed cells; assay type: cell-based; conditions: 2 μM; cells in suspension for 24 hours
T2 construct: endogenous in cells; host or cells: MCF10A-HER2 cells in suspension for 24 hours
T2 sequence (Q9NZJ5 30-1116): T1 sequence (Q9NZJ5 30-1116)

## Cc1cccc(CC(=O)N2CCc3c2ccc(-c2cn(C)c4ncnc(N)c24)c3F)n1 [GSK2656157, reference compound]
PERK
  IC50: 0.036 µM
456 kinases; 0.2 μM
  # kinases inhibited >50%: 34
456 kinases; 2.0 μM
  # kinases inhibited >50%: 80
456 kinases
  number of kinases with >60% inhibition: 58
[1]
  PERK phosphorylation (immunoblot): inhibition of PERK phosphorylation

## CNC(=O)c1nc(-c2ccc(NC(=O)[C@H](O)c3cc(F)cc(F)c3)cc2C)cnc1N [LY2, 3-amino-6-[4-[[(2R)-2-(3,5-difluorophenyl)-2-hydroxy-acetyl]amino]-2-methyl-phenyl]-N-methyl-pyrazine-2-carboxamide]
PERK
  IC50: 0.117 µM
456 kinases; 0.2 μM
  # kinases inhibited >50%: 16
456 kinases; 2.0 μM
  # kinases inhibited >50%: 35
456 kinases; 20.0 μM
  # kinases inhibited >50%: 138
[1]
  PERK phosphorylation (immunoblot): inhibition of PERK phosphorylation

## Cc1cc(NC(=O)[C@H](O)c2cccc(F)c2)ccc1-c1cn(C)c2ncnc(N)c12 [LY3, (2R)-N-[4-(4-amino-7-methyl-pyrrolo[2,3-d]pyrimidin-5-yl)-3-methyl-phenyl]-2-(3-fluorophenyl)-2-hydroxy-acetamide]
PERK
  IC50: 0.026 µM
456 kinases; 0.2 μM
  # kinases inhibited >50%: 27
456 kinases; 2.0 μM
  # kinases inhibited >50%: 85
456 kinases; 20.0 μM
  # kinases inhibited >50%: 229
[1]
  PERK phosphorylation (immunoblot): inhibition of PERK phosphorylation

## Cc1cc(NC(=O)[C@H](O)c2cc(F)cc(F)c2)ccc1-c1cnc(N)c(C(=O)NC(C)C)c1 [LY4, 2-amino-5-[4-[[(2R)-2-(3,5-difluorophenyl)-2-hydroxy-acetyl]amino]-2-methyl-phenyl]-N-isopropyl-pyridine-3-carboxamide]
PERK
  IC50: 0.054 µM
456 kinases; 0.2 μM
  # kinases inhibited >50%: 19
456 kinases; 2.0 μM
  # kinases inhibited >50%: 20
456 kinases
  number of kinases with >60% inhibition: 8
[1]
  PERK phosphorylation (immunoblot): inhibition of PERK phosphorylation
